The values that follow come from US20110218515A1, “Methods for Treating Acute Myocardial Infarctions and Associated Disorders” (The Regents of the University of California, priority 2009, published 2011).

Assay [1] relates to ischemia-reperfusion rat model. The assay is described as follows: Serial echocardiography in ischemia-reperfusion MI rats. It counts as in vivo, Sprague-Dawley rats. Conditions: for LV ejection fraction at 5 weeks: 5 weeks post-MI, after four weeks feed with 1.2% pirfenidone. The protocol: In this example, a protocol is described for examining the ventricular function, extent of fibrosis and VT inducibility in an ischemia-reperfusion rat model after pirfenidone treatment. Ventricular function was assessed via echocardiography. VT inducibility was assessed by programmed stimulation and EP study. The electrophysiological properties were assessed using high-resolution optical mapping, and the extent of fibrosis was studied using standard histological techniques.
After baseline echocardiography, thirty male Sprague-Dawley rats, ages 6-10 weeks, underwent myocardial infarction using an ischemia-reperfusion model. Briefly, rats were anesthetized using inhaled isoflurane (5% induction, 2.5% maintenance, O2 output 1 L/min) and positioned supine on an electrically warmed animal surgery platform. Rats were intubated using a 16-gauge i.v. catheter and then ventilated using a Harvard rodent respirator. After a left thoracotomy and pericardiotomy were performed, a 7-0 Ticron suture was introduced into the myocardium, using the left atrial appendage and right outflow tract as landmarks. The depth of entry was 2 mm, which was slightly greater than the level of the left coronary artery. Both suture ends were then threaded through a PE-90 polyethylene tube 6 in. in length to form a “snare loop” around the artery, closed by pulling on the free ends of the suture. […] The suture was then tightened to occlude the artery for 20 minutes and then removed to allow for reperfusion. The chest was then closed with 5-0 prolene suture, and the animal was allowed to recover. After one week and repeat echocardiography, rats were randomized to placebo rodent feed (control group, n=15) or rodent feed mixed with 1.2% pirfenidone (PFD) (treatment group, n=15) for four weeks. All experiments and data analyses were performed with the operator blinded to treatment group.
At baseline, and at 1 wk and 5 wk after infarction, a commercially available high-resolution echocardiographic system (Vevo 660, VisualSonics, Toronto, ON, Canada) equipped with a 25-MHz mechanical transducer was used for echocardiography. Rats were placed supine on a warming platform, and ECG limb electrodes were attached. To minimize ultrasound attenuation, the chests were shaved and cleaned with a chemical hair remover (Nair). Aquasonic 100 gel (Parker Laboratories, Fairfield, N.J.) was applied to the thoracic surface to optimize visibility of the cardiac chambers. Parasternal long-axis and parasternal short-axis two-dimensional views were acquired.
Using the long-axis view, left ventricular (LV) end-systolic and end-diastolic volumes (ESV and EDV), as well as LV ejection fraction (LVEF), were calculated by using frames with the maximal and minimal cross-sectional area and width. The system software utilizes a formula based on a cylindrical-hemiellipsoid model (volume=8*area2÷3÷length). LVEF was calculated using the following formula: (EDV−ESV)/EDV*100. Fractional shortening (FS) was evaluated from the M mode of the parasternal long-axis view at the papillary muscle level on the basis of the percent changes of LV end-diastolic and end-systolic diameters. LV mass was estimated using the following equation at end diastole: LV mass=1.05*(epicardial volume−endocardial volume), where volume is based on the cylindrical-hemiellipsoid model. These evaluations of LV function in the rodent are well validated. Echocardiographic acquisition and analysis were obtained while blinded to the treatment group.

The test system of assay [2] is congestive heart failure dogs, coronary perfused left ventricular preparation. Briefly: Ventricular fibrillation optical mapping, activation patterns, pacing-induced heart failure dogs. It counts as in vivo. The source says:
Animal Models: Twenty-four dogs weighing 25-30 Kg were divided into three groups: control (n=11), congestive heart failure (n=7), and congestive heart failure with the antifibrotic drug pirfenidone (n=6). Heart Failure (CHF) was induced in 7 dogs via four weeks of rapid ventricular pacing via a lead placed in the RV and pulse generator set to pace at 240 bpm followed by ablation of the AV node to create complete heart block, as described in Li, et al., Circulation 1999; 100:87-95. Ventricular function was monitored weekly with transthoracic echocardiography for 4 weeks. At 4 weeks, the optical mapping study was performed.
Heart Failure with Pirfenidone (PFD): Heart failure was induced in 6 dogs as described above and PFD was administered as described in Lee et al., Circulation 2006; 114; 1703-12. Oral PFD (800 mg 3 times per day; InterMune, Brisbane, Calif.) was started 2 days before the initiation of pacing and was discontinued >6 half-lives (24 hours) before the optical mapping study.
Optical Mapping Studies: A coronary perfused left ventricular preparation was used as described in Wu et al., J Cardiovasc Electrophysiol 1998; 9:1336-47. Briefly, following sedation with sodium pentothal (0.25 mg/Kg), a left lateral thoracotomy is performed and the heart was rapidly excised. It was then perfused with cardioplegic solution ((in mmol/L): NaCl 123, KCl 15, NaHCO3 22, NaH2PO4 0.65, MgCl2 0.50, glucose 5.5, CaCl2 2, bubbled with 95% O2/5% CO2) retrogradely through the aorta. The ventricles were removed at approximately 1 cm below the AV ring and the left anterior descending coronary artery (LAD) was perfused. The right ventricle was removed and the left ventricle was cut to the size that was perfused by the LAD and included a papillary muscle. All ventricular branches were then ligated.
The ventricular preparation was then transferred to a tissue chamber maintained at 37° C. The perfusion line in the LAD was perfused with modified Tyrode's solution ((in mmol/L): NaCl 123, KCl 5.4, NaHCO3 22, NaH2PO4 0.65, MgCl2 0.50, glucose 5.5, CaCl2 2, bubbled with 95% O2/5% CO2). Prior to optical recordings, a bolus of 30-40 μl of the voltage sensitive dye PGH-1 was injected directly into the perfusate.
With an optical mapping system described in Wu et al., J Cardiovasc Electrophysiol 1998; 9:1336-47, optical recordings were then made from 4-cm^2 area on 3 surfaces of the preparation (epicardial, endocardial (including the papillary muscle, and transmural) by a 16×16 photodiode array (C4657 Hamamatsu, Bridgewater, N.J.) that recorded 256 simultaneous optical action potentials. During optical recordings from a preparation, contractility was blocked with 15 mM 2,3-butadione monoxime (BDM; Sigma-Aldrich)11. Plunge electrodes were placed on the recording surface around the field of view for both pacing and monitoring. Two plunge electrodes were dedicated for recording a bipolar signal for monitoring the electrical activity of the preparation. VF was initiated with either extra stimuli or with rapid burst pacing at a cycle length of 50 ms, a pulse width of 9.9 ms, and an output of 9.9 mA. Several 4-s episodes of VF were recorded on each surface in each preparation. Activation movies of the VF were then viewed, and the activation patterns were determined. […] Activation patterns and wave-front direction during VF were determined from raw fluorescence movies (isopotential). […]

[3] abbreviates: CHF dogs, oral PFD 800 mg 3 times per day, one line per dog, listed as PFD.

Several values for one entry are separate records, joined by “and”; a condition that tells them apart may be missing. Equal entries are not always repeated. Entries after “also recorded” stand apart in the source; their conditions may differ.

On to `Cc1ccc(=O)n(-c2ccccc2)c1` [pirfenidone], for which the “LV ejection fraction at 1 week” value in assay [1] (1 week post-MI, at randomization before treatment) is on record as 54%. Moreover, the “LV ejection fraction at 5 weeks” value in assay [1] worked out at 45%. Moreover, the “LV ejection fraction at 5 weeks” value in assay [1] (listed as PFD) is listed as 36±15%. In assay [1] (baseline echocardiography, before treatment), the “LV ejection fraction, starting value of the decline” value came to 66±5%. In addition, the “percent decrease in ejection fraction from week 1 to week 5” value in assay [1] (treatment period, feed with 1.2% pirfenidone, controls 24.3%, p=0.005) was 8.6% and 8%. In assay [2] (CHF dogs with PFD), the “mapped epicardial surfaces having either focal activation or a spiral wave” value is listed as 2/6 and the “mapped transmural surfaces with spiral wave activation pattern correlated to stable high DF areas” value amounted to 50%. For the same molecule, in assay [2] (setting [3]), the “VF Activation Patterns, Endocardial” value is reported as “either multiple or broad wavefront activation; also recorded: multiple wave; also recorded: broad wavefront”; the “VF Activation Patterns, Epicardial” value is given as “multiple wave; also recorded: focal”; the “VF Activation Patterns, Transmural” value is recorded as “spiral wave; also recorded: multiple wave”.
